Measurements as given in patent US6831080B2, “Cinnamide derivatives as KCNQ potassium channel modulators” (Bristol-Myers Squibb Company, priority 2001, dated 2004).

Experiments:
[1] = molecular target: T1, mKCNQ2 channels (Mus musculus, UniProt Q9Z351); test: Whole-cell patch-clamp, HEK 293 stable cell line expressing mKCNQ2 channels; assay type: cell-based; conditions: HEK 293 mKCNQ2, Hill fit; for EC50: @ −40 mV
T1 construct: expressed in transfected cells
Method: Whole-cell patch-clamp recordings were made from an HEK 293 stable cell line expressing mKCNQ2 channels, maintained in culture for 1-2 days. Patch pipettes had initial resistances of 2.5-4 MΩ. Currents were recorded with an EPC-9 amplifier (HEKA, Lambrecht, Germany) controlled with software (Pulse, HEKA) run on a standard lab PC. Series resistance compensation was used during current recording, and set at 80%. The series resistance (R) and cell capacitance (C) were determined electronically by subtracting the capacitive currents at the onset and offset of a 5 mV voltage step. The cancellation of whole-cell capacitance transients was virtually complete in all cells. Analog current signals were low-pass filtered at 2.9 kHz using a four-pole Bessel filter −3 dB) and stored on a local network server computer at a sampling rate of […]. All recordings were performed at room temperature (20-22° C.). The pipette solution contained (mM): KCl, 150; CaCl2, 2.5; EGTA, 5; MgCl2, 1; HEPES, 10; pH to 7.3 with KOH, and Osmolality of 290-300 mOsm. The extracellular solution contained (mM): NaCl, 140; KCl, 2.5; CaCl2, 2.5; MgCl2, 1; glucose, 10; HEPES, 10; pH to 7.3 with NaOH, and Osmolality of 305-310 mOsm
Concentration response data were generated by measuring the difference in the steady-state amplitude of current in the presence of compound at the end of a 600 ms voltage-clamp step from a holding potential of −80 mV. The concentration-response data were fitted with Hill-type equations: […]
where I is the steady-state current at a given concentration of agonist [A]; and Imax, EC50 and nH are parameters estimated from the curve fit. In some cases the concentration-response data were fitted with equations consisting of the sum of two Hill-type components. Current-voltage (I/V) relationships for agonist-evoked currents were obtained by performing 600 ms voltage steps (−110 mV to +40 mV) in the absence and presence of agonist.

[2] = molecular target: cloned mouse KCNQ2 (mKCNQ2) (Mus musculus, UniProt Q9Z351); test: KCNQ oocyte two-electrode voltage clamp, whole-cell outward current; assay type: cell-based; conditions: 10 μM; single holding potential (−40 μM [sic]); Xenopus oocytes
Method: The ability of compounds described in the present invention to open KCNQ channels and increase whole-cell outward (K^+) KCNQ-mediated currents was assessed under voltage-clamp conditions by determining their ability to increase cloned mouse KCNQ2 (mKCNQ2)-mediated, heteromultimeric KCNQ2/3 (mKCNQ2/hKCNQ3)-mediated, and human KCNQ5 (hKCNQ5)-mediated outward currents heterologously expressed in Xenopus oocytes. Oocytes were prepared and injected using standard techniques; each oocyte was injected with approximately 50 nl of mKCNQ2, or hKCNQ5 cRNA. In the case of mKCNQ2/h3 heteromultimeric channel expression, equal amounts (25-50 nL) of each cRNA were co-injected. […] Following injection, oocytes were maintained at 17° in ND96 medium consisting of (in mM): NaCl, 90; KCl, 1.0; CaCl2, 1.0; MgCl2, 1.0; HEPES, 5.0; pH 7.5. Horse serum (5%) and penicillin/streptomycin (5%) were added to the incubation medium. Recording commenced 2-6 days following mRNA injection. Prior to the start of an experiment oocytes were placed in a recording chamber and incubated in Modified Barth's Solution (MBS) consisting of (in mM): NaCl, 88; NaHCO3, 2.4; KCl, 1.0; HEPES, 10; MgSO4, 0.82; Ca(NO3)2, 0.33; CaCl2, 0.41; pH 7.5.
Oocytes were impaled with electrodes (1-2 MΩ) and standard 2-electrode voltage clamp techniques were employed to record whole-cell membrane currents. Recordings were accomplished using standard two-electrode voltage clamp techniques [Stuhmer, W., et al., Methods in Enzymology, Vol. 207: 319-339 (1992)]. Voltage-clamp protocols typically consisted of a series of voltage steps 1-5 sec duration, in +10 mV steps from a holding potential of −90 mV to a maximal potential of +40 mV; records were digitized at 5 kHz and stored on a computer using pClamp data acquisition and analysis software (Axon Instruments). Compounds were evaluated at a single concentration and at a single holding potential (−40 μM); the effect of the selected compounds of Formula I on KCNQ2 current was expressed as the percent of control current and is listed in Table I.

[3] = tested on: streptozoticin-induced tactile allodynia, Sprague Dawley rats; test: Diabetic model of neuropathic pain (streptozoticin and von Frey test); assay type: in vivo, rat; conditions: 10 mg/kg, i.v.; von Frey thresholds over 90 min; STZ diabetic model
Method: To test agents for activity against systemic polyneuropathy nerve injury-induced tactile allodynia, animals were treated with streptozoticin (STZ) to create a diabetic condition by selective cytotoxic action upon pancreatic β-islet cells that produce insulin following the method of Courteix, et al. (Courteix C., et al., (1993) Pain, April;53(1):81-8). In brief, male Sprague Dawley rats (wt. 200-275 g) received an injection of STZ (75 mg/kg, i.p.) and diabetes was confirmed three weeks after STZ injection by measurement of tail vein blood glucose levels. After 3-4 weeks, paw withdrawal to light touch was assessed as described by Chaplan et al. (Chaplan S. R., et al., (1994) J Neurosci Methods, July;53(1):55-63). In brief, rats are placed in a plastic cage with a wire mesh bottom and allowed to acclimate for 15-30 minutes, until cage exploration and grooming stops. The plantar surface of each hind paw is touched with a series of von Frey hairs with varying stiffness requiring a known force to buckle to determine the nociceptive threshold. Adult male Sprague Dawley rats (avg. wt. 300 g) were tested in the present study. After acclimation, baseline von Frey thresholds were assessed for the injured hindpaw at -15 min. All test compounds were delivered at 0 min by the intravenous (i.v.) route in a volume of 0.5-2 ml/kg. […] Animals were tested in one of the following 4 treatment conditions: […] Following drug administration, von Frey thresholds are measured at 15, 30, 60 and 90 min. Data were analyzed by a 2-way repeated measures analysis of variance followed by Dunnett's test (p<0.05). Experimenters were kept blind to the treatment condition of rats they tested. […] Specifically, drug effects can be described in terms Δ% MPE according to the following equation: {[…] under the curve for von Frey thresholds of the drug-treated group; AUCvehicle=area under the curve for von Frey thresholds in the vehicle group; Time=duration of post-drug testing period (90 min); and Max=maximum von Frey threshold (15 g).

T1 sequence (Q9Z351 whole entry): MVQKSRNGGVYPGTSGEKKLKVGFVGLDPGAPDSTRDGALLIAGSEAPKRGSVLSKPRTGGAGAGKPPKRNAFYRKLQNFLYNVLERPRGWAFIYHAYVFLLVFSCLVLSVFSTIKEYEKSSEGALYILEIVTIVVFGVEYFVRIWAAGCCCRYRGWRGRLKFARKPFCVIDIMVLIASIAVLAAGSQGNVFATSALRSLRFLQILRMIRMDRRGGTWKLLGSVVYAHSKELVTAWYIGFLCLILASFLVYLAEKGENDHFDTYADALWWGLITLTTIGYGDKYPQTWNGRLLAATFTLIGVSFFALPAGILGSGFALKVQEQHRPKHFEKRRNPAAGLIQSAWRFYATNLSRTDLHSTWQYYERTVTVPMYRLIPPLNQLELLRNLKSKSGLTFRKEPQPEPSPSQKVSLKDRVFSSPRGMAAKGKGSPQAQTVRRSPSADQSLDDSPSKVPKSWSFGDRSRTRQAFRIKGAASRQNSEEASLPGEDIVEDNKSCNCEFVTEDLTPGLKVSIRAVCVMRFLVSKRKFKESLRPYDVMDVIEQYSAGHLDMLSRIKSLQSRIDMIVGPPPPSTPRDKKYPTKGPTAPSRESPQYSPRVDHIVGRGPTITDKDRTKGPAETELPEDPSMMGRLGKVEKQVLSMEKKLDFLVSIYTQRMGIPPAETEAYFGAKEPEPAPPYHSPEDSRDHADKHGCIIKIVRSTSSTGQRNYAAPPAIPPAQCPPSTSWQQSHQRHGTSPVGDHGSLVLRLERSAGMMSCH
Chain of cloned mouse KCNQ2 (mKCNQ2) (Q9Z351 whole entry): as above

activity at 10 µM [2] [%]	SMILES	EC50 [1] [µM]	Emax ([1]; HEK293, read-out: Imax (%)) [%]	AUC (Δ% MPE) [3]
–	C[C@H](NC(=O)/C=C/c1ccc(F)cc1)c1ccc2ccccc2c1 [Example 1, (S)-3-(4-Fluoro-phenyl)-N-(1-naphthalen-2-yl-ethyl)acrylamide]	9.2	237	–
197	C[C@H](NC(=O)/C=C/c1ccccc1)c1cccc(N2CCOCC2)c1 [Example 82, (S)-3-Phenyl-N-[1-(3-morpholin-4-yl-phenyl)ethyl]acrylamide]	–	–	23 (10 mg/kg, i.v.) Δ% MPE
–	C[C@H](NC(=O)/C=C/c1ccc(F)cc1)c1ccc(F)c(N2CCOCC2)c1 [Example 169, (S)-N-[1-(4-Fluoro-3-morpholin-4-yl-phenyl)-ethyl]-3-(4-fluoro-phenyl)-acrylamide]	1	–	12 (10 mg/kg, i.v.) Δ% MPE
